{
  "source": "paper PMC7179907",
  "about": "“Novel AXL-specific inhibitor ameliorates kidney dysfunction through the inhibition of epithelial-to-mesenchymal transition of renal tubular cells” (PLoS ONE, 2020)",
  "key": {"[1]": {"target": "T1, AXL (Homo sapiens, UniProt P30530)", "T1 construct": "purchased Carna Biosciences (Kobe, Japan)", "T1 sequence (P30530 26-894)": "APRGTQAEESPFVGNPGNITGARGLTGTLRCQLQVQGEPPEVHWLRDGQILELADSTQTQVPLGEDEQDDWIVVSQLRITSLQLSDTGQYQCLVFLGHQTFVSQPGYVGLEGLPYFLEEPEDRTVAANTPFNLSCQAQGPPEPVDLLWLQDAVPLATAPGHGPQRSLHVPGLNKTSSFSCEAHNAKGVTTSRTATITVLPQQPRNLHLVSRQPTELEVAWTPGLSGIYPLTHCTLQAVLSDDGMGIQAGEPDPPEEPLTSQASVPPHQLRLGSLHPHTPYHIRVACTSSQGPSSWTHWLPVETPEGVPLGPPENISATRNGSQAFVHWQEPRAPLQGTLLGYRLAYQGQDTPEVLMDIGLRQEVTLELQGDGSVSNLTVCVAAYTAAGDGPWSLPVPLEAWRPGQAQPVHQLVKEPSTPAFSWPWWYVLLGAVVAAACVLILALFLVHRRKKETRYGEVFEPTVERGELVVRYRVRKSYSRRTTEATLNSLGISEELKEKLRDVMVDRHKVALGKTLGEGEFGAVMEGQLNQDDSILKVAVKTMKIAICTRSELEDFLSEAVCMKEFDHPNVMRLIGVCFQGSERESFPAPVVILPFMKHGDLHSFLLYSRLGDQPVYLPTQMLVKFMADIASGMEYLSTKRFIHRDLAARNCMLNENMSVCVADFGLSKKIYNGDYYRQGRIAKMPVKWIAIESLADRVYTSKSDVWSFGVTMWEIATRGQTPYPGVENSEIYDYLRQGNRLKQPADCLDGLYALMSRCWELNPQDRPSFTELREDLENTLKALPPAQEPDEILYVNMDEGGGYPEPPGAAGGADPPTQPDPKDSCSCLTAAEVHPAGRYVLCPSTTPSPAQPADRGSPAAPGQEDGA", "experiment": "Protein kinase assay, AXL", "type": "biochemical", "conditions": "recombinant AXL, 1.5 hours treatment, n = 2; read-out: IC50 against AXL kinase activity", "text": "(§1) CH5451098 (N-cyclopropyl-2-[2-[8-[(2R)-2,3-dihydroxypropoxy]-6,6-dimethyl-11-oxo-naphtho[2,3-b]benzofuran-3-yl]ethynyl]pyridine-4-carboxamide), a selective inhibitor of AXL, was synthesized at Chugai Pharmaceutical Co. Ltd. (Fig 1). The following recombinant proteins were used for the kinase assay: AXL, Mer, Tyro3, Flt3, JAK2, EGFR, HER2, KIT, PDGFRβ, FGFR2, KDR, MET, ALK, EPHA2, EPHB2, FAK, SRC, ABL, ERK1, PKA, AKT1, PKACα, PKACβ1, AurA, CHK1, CHK2, MNK1, CDK1, and p38α from Carna Biosciences (Kobe, Japan), and Raf1 from Thermo Fisher Scientific (Waltham, MA). Recombinant mouse TGFβ1 (mTGFβ1) and recombinant mouse Gas6 (mGas6) were purchased from R&D systems. All other chemicals were of the highest purity available. The following primary antibodies were used for this study: anti-beta catenin (8480), anti-zinc finger E-box-binding homeobox 1 (Zeb1) (3396), anti-glyceraldehyde-3-phosphate dehydrogenase (GAPDH) (8884) antibody from Cell Signaling Technology (Danvers, MA). […]\n(§2) Protein kinases were purchased from Carna Biosciences or Millipore. The inhibitory activity against each kinase was evaluated as described previously.\n(§3) Fig 2 In vitro kinase inhibitory activity of CH5451098. […] Enzyme inhibitory activity was calculated by the formula (1-T/C) x 100 (%), where T represents the measured value of the wells with a compound and C represents that of wells without a compound (n = 2). […]"}, "[2]": {"system": "30 kinases including the TAM family (Tyro3, AXL and, Mer) of receptor tyrosine kinases", "experiment": "30 kinase inhibitory assays (selectivity)", "type": "biochemical", "conditions": "Fig 2B", "text": "as §1, §2, §3"}, "[3]": {"system": "NEP25 mice", "experiment": "NEP25 mouse model of glomerular nephritis (LMB2-induced)", "type": "in vivo", "procedure": "NEP25 mice, heterozygous podocyte-specific hCD25 transgenic mice, were bred in Tokai University and kindly provided by Matsusaka et al.. All mice were kept in well-controlled animal housing with free access to water and pellet food. Animal procedures and protocols were in accordance with the Guidelines for the Care and Use of Laboratory Animals at Chugai Pharmaceutical Co. Ltd. and approved by the Institutional Animal Care and Use Committee.\nTo induce disease, NEP25 mice were injected with 0.8 μg/kg of the immunotoxin LMB2 (provided from National Institutes of Health, USA) via the tail vein, except in the normal control group (n = 4). CH5451098 powder was suspended in a 0.5% carboxymethyl cellulose solution to prepare 1.0 mg/mL. Mice were divided into 2 groups and were orally administered vehicle (disease group, n = 10) or CH5451098 10 mg/kg once daily for 21 days (CH5451098 group, n = 10) from one day before LMB2 injection. The dose of CH5451098 was set high enough to inhibit AXL kinase activity throughout the day. Mice not treated with LMB2 were used as normal control.\nBlood and urine samples were collected on day 7, 14, or, 21 after LMB2 injection. Blood samples were collected from the abdominal portion of the vena cava under isoflurane anesthesia and were centrifuged to obtain serum samples. Urine samples were collected for 24 hours using a metabolic cage. The mice were euthanized by exsanguination under isoflurane anesthesia at day 22 after LMB2 injection. Kidney tissues were dissected for pathology (formalin-fixed or methyl carnoy-fixed) and kidney cortex samples were collected and snap frozen in liquid nitrogen.\nSerum urea nitrogen (BUN), creatinine (sCre) and urinary albumin (uAlb), N-Acetyl-beta-D Glucosaminidase (NAG), and creatinine were measured using an automatic analyzer (Hitachi 7100 Autoanlayzer, Hitachi Co., Ltd. Tokyo, Japan).\nRNA samples were extracted from frozen mouse kidney cortex or NRK-52E cells using an RNaesy Mini kit (QIAGEN, Hilden, Germany). cDNA were synthesized from RNA using a reverse transcription kit (Roche applied science, Penzberg, Germany). Expression levels were measured by a LightCycler 480 (Roche Applied science) using TaqMan probe/primer sets for each gene (Thermo Fisher Scientific). […]"}, "[4]": {"system": "NRK-52E cells", "experiment": "EMT induced by TGFβ1 and Gas6 in NRK-52E cells (mRNA expression)", "type": "cell-based, rat", "conditions": "CH5451098 1 nmol/L; mTGFβ1 2 ng/mL and mGas6 500 ng/mL; 2 hours", "procedure": "RNA samples were extracted from frozen mouse kidney cortex or NRK-52E cells using an RNaesy Mini kit (QIAGEN, Hilden, Germany). cDNA were synthesized from RNA using a reverse transcription kit (Roche applied science, Penzberg, Germany). Expression levels were measured by a LightCycler 480 (Roche Applied science) using TaqMan probe/primer sets for each gene (Thermo Fisher Scientific).\nNRK-52E cell line derived from rat renal tubular epithelial cells was purchased from ATCC (Manassas, VA) and cultured in Dulbecco’s modified eagle’s medium with high glucose media supplemented with 5% FBS at 37°C under 5% CO 2 and 95% air.\nNRK-52E cells were seeded onto a collagen-coated plate and were cultured over-night. After reaching subconfluence, cells were cultured in serum restricted medium (0.5% FBS) for 6 hours. Then the cells were stimulated with recombinant mTGFβ1 (2 ng/mL) and/or recombinant mGas6 (500 ng/mL) followed by treatment with or without CH5451098 (1 nmol/L) for 15 minutes. The cells were lysed with RLT buffer (Qiagen) after 2 hours incubation with stimulants and mRNA was purified using RNeasy mini kit (Qiagen)."}, "[5]": {"conditions": "10 mg/kg once daily 21 days, kidney cortex, vs disease control"}, "[6]": {"conditions": "10 mg/kg once daily 21 days, vs disease control"}, "[7]": {"conditions": "10 mg/kg orally once daily 21 days, blood 24 hours after final administration, mean ± SE, p<0.01 vs disease control"}, "[8]": {"conditions": "kidney cortex, 3 weeks after disease induction, vs disease control"}},
  "data": [
    {"smiles": "CC1(C)c2cc(OC[C@H](O)CO)ccc2C(=O)c2c1oc1cc(C#Cc3cc(C(=O)NC4CC4)ccn3)ccc21", "note": "[CH5451098, N-cyclopropyl-2-[2-[8-[(2R)-2,3-dihydroxypropoxy]-6,6-dimethyl-11-oxo-naphtho[2,3-b]benzofuran-3-yl]ethynyl]pyridine-4-carboxamide]", "values": [
      {"measurement": "IC50", "setting": "[1]", "result": 3.8, "unit": "nM"},
      {"measurement": "selectivity against other kinases", "setting": "[2]", "result": "strongest inhibitory activity towards AXL among 30 kinases"},
      {"measurement": "uAlb excretion", "setting": "[3]; 10 mg/kg once daily 21 days, 3 weeks after disease induction, vs disease control", "result": "significantly decreased"},
      {"measurement": "Renal LCN2 mRNA", "setting": "[3]; [5]", "result": "significantly decreased"},
      {"measurement": "kidney Col1a1 mRNA", "setting": "[3]; [5]", "result": "significantly reduced"},
      {"measurement": "kidney OH-Pro content", "setting": "[3]; [5]", "result": "suppressed"},
      {"measurement": "kidney Pai1 mRNA", "setting": "[3]; [5]", "result": "significantly inhibited"},
      {"measurement": "kidney Snai1 mRNA", "setting": "[3]; [5]", "result": "did not reduce"},
      {"measurement": "kidney TGFβ1 mRNA expression", "setting": "[3]; [5]", "result": "only a partial reduction"},
      {"measurement": "kidney Twist1 mRNA", "setting": "[3]; [5]", "result": "tended to suppress"},
      {"measurement": "kidney Zeb1 mRNA", "setting": "[3]; [5]", "result": "suppressed"},
      {"measurement": "Urinary NAG excretion", "setting": "[3]; 10 mg/kg once daily 21 days, urine 0 to 24 hours after final administration, vs disease control", "result": "significantly inhibited"},
      {"measurement": "abundance of stained connective tissue (Sirius red and Masson's Trichrome staining)", "setting": "[3]; [6]", "result": "inhibited"},
      {"measurement": "destruction of glomerular structure (periodic acid-Schiff stain)", "setting": "[3]; [6]", "result": "ameliorated"},
      {"measurement": "tubulointerstitial fibrosis (semi-quantitative score, Masson's trichrome)", "setting": "[3]; [6]", "result": "significantly suppressed"},
      {"measurement": "BUN", "setting": "[3]; [7]", "result": "55 ± 5.0", "unit": "mg/dL"},
      {"measurement": "Serum creatinine (sCre)", "setting": "[3]; [7]", "result": "0.15 ± 0.019", "unit": "mg/dL"},
      {"measurement": "uAlb leakage", "setting": "[3]; 2 weeks after disease induction, compared to DC group, data not shown", "result": "no effect"},
      {"measurement": "kidney Zeb1 protein level (western blotting)", "setting": "[3]; [8]", "result": "reduced"},
      {"measurement": "kidney beta-catenin protein level (western blotting)", "setting": "[3]; [8]", "result": "reduced"},
      {"measurement": "LCN2 mRNA induced by Gas6 and TGFβ1", "setting": "[4]", "result": "inhibited"},
      {"measurement": "Snai1 mRNA induced by Gas6 along with TGFβ1", "setting": "[4]", "result": "markedly inhibited"},
      {"measurement": "Twist1 mRNA induced by Gas6 along with TGFβ1", "setting": "[4]", "result": "markedly inhibited"},
      {"measurement": "Zeb1 mRNA induced by Gas6 along with TGFβ1", "setting": "[4]", "result": "markedly inhibited"},
      {"measurement": "enhancement of Pai1 mRNA", "setting": "[4]", "result": "suppressed"},
      {"measurement": "enhancement of TGFβ1 mRNA", "setting": "[4]", "result": "suppressed"}
    ]}
  ]
}
